PubChem BioAssay (NCI)
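Growth conditions: 96-well plates. Treatment: test compound, 48 hours, 5 concentrations. Analysis: linear interpolation between bracketing concentrations; unreached endpoints set to highest concentration. Definition used: TGI = concentration required for complete inhibition of growth.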

How the values were obtained:
Assay in all cases: growth of human tumour cells (NCI), 48 h
SN12C renal = system: SN12C renal
HL-60(TB) leukemia = system: HL-60(TB) leukemia
MCF7 breast = system: MCF7 breast
MOLT-4 leukemia = system: MOLT-4 leukemia
SW-620 colon = system: SW-620 colon
HCT-15 colon = system: HCT-15 colon
BT-549 breast = system: BT-549 breast
MDA-MB-231 breast = system: MDA-MB-231 breast
HT29 colon = system: HT29 colon
SK-MEL-2 melanoma = system: SK-MEL-2 melanoma
CAKI-1 renal = system: CAKI-1 renal
SF-539 CNS = system: SF-539 CNS
TK-10 renal = system: TK-10 renal

Row | Compound | TGI (SN12C renal) | TGI (HL-60(TB) leukemia) | TGI (MCF7 breast) | TGI (MOLT-4 leukemia) | TGI (SW-620 colon) | TGI (HCT-15 colon) | TGI (BT-549 breast) | TGI (MDA-MB-231 breast) | TGI (HT29 colon) | TGI (SK-MEL-2 melanoma) | TGI (CAKI-1 renal) | TGI (SF-539 CNS) | TGI (TK-10 renal)
1 | Cc1cc(-c2nc3cc(F)c(F)cc3s2)ccc1N | > 100 µM | > 100 µM | > 100 µM | > 100 µM | > 100 µM | > 100 µM | > 100 µM | > 100 µM | > 100 µM | > 100 µM | > 100 µM |  | 
2 | COC(=O)CCC(=O)c1ccc2c(c1)CC1(C2)Cc2ccc3c(c2C1)CCCC3=O (configuration not stated) | > 100 µM | 13.4 µM | 69.9 µM | 18.2 µM | > 100 µM | > 67.4 µM |  | > 100 µM | > 76.9 µM | 36.9 µM | 78.1 µM | 42.6 µM | > 100 µM
3 | CCn1cnc2c(NC(C)=O)ncnc21 | > 100 µM |  | > 100 µM | > 100 µM | > 100 µM | > 100 µM | > 100 µM | > 100 µM | > 100 µM | > 100 µM | > 100 µM | > 100 µM | > 100 µM
4 | Cc1n[nH]c(=O)n1N1C(=O)c2ccccc2C1=O | > 100 µM |  | > 100 µM | > 100 µM | > 100 µM | > 100 µM | > 100 µM | > 100 µM | > 100 µM | > 100 µM | > 100 µM | > 100 µM | > 100 µM
5 | CCc1n[nH]c(=O)n1NC(=O)/C=C\C(=O)O | > 100 µM | > 100 µM | > 100 µM | > 100 µM |  | > 100 µM | > 100 µM | > 100 µM | > 100 µM | > 100 µM | > 100 µM | > 100 µM | > 100 µM
6 | COc1cc(OC)nc(Nc2c(C#N)c3nc4ccccc4n3c3ccccc23)n1 |  | > 100 µM | > 100 µM | > 100 µM | > 100 µM | > 100 µM | 63 µM |  | > 100 µM | 71.1 µM | > 100 µM | 35.1 µM | 74.2 µM
7 | CN(C(=O)c1cccs1)C(=S)N1CCN(c2ccccc2)CC1 | > 100 µM | > 100 µM | > 100 µM | > 100 µM | > 100 µM | > 100 µM | > 100 µM | > 100 µM | > 100 µM | > 100 µM |  |  | > 100 µM
8 | Cc1nc2c(ncn2CCO)c(=O)[nH]1 | > 100 µM | > 100 µM | > 100 µM |  | > 100 µM | > 100 µM |  | > 100 µM | > 100 µM |  | > 100 µM | > 100 µM | > 100 µM
9 | CC(NC(=O)C(N)CC(=O)O)NC(=O)N1CCCC1 (configuration not stated) | > 100 µM |  | > 100 µM | > 100 µM | > 100 µM | > 100 µM | > 100 µM | > 100 µM | > 100 µM | > 100 µM | > 100 µM | > 100 µM | > 100 µM
10 | OCSc1nn(CO)c(=S)s1 | 49.4 µM | 54 µM | 35.9 µM | 51.6 µM | > 100 µM | 37.8 µM |  | 68.1 µM | 75.3 µM | 45.2 µM | > 100 µM | 56.8 µM | > 100 µM
11 | CC1(C)OC(=S)N(c2ccccc2)C12C=Cc1cc3ccccc3cc1O2 (configuration not stated) | > 100 µM | > 100 µM | > 100 µM | > 100 µM | > 100 µM | > 100 µM | > 100 µM | > 100 µM | > 100 µM | > 100 µM | > 100 µM |  | > 100 µM
12 | C[C@]12CCC(=O)C=C1CC[C@@H]1C2CC[C@]2(C)Nc3c(ncn3-c3ccc(F)cc3)CC12 (some centres not stated) | > 100 µM | > 100 µM | 74 µM | 90.8 µM | > 100 µM |  | 59.8 µM | > 100 µM | > 100 µM |  | > 100 µM | 34.3 µM | > 100 µM
13 | COC1(C)C=NCC(C)(C)NC(=O)C(C)(OC)C=NCC(C)(C)NC1=O (configuration not stated) | > 10 µM | > 10 µM | > 10 µM | > 10 µM | > 10 µM | > 10 µM | > 10 µM | > 10 µM | > 10 µM |  | > 10 µM | > 10 µM | > 10 µM
14 | CC1(C)CC[C@]2(C(=O)O)CC[C@]3(C)C(=CC[C@@H]4[C@@]5(C)CC[C@H](OC6OC(CO)C(O)C(O)C6OC6OC(CO)C(O)C(O)C6O)C(C)(C)[C@@H]5CC[C@]43C)[C@@H]2C1 (some centres not stated) | 33.2 µM | 42.8 µM | 36.7 µM | 48.3 µM | 48.3 µM | 35.3 µM | 36.2 µM | 51.9 µM | 30.2 µM | 2.48 µM | 35.4 µM |  | 
15 | C=C(C(=O)O)[C@@H]1C[C@@H]2O[C@H]1CC(C)=CCC/C(C)=C/CC[C@@]2(C)O | > 100 µM | > 100 µM | > 100 µM | > 100 µM | > 100 µM | > 100 µM | > 100 µM | > 100 µM |  | > 100 µM | > 100 µM | > 100 µM | > 100 µM
16 | S=C1SC(c2ccc(Cl)cc2)(c2ccc(Cl)cc2)c2ccccc21 | > 100 µM |  | > 100 µM | > 100 µM | > 100 µM | > 100 µM | > 100 µM | > 100 µM | > 100 µM |  | > 100 µM | > 100 µM | > 100 µM
17 | Cc1nn(C)c2c1C(=O)N(C)CC(=O)N2C | > 100 µM | > 100 µM | > 100 µM | > 100 µM | > 100 µM | > 100 µM | > 100 µM |  | > 100 µM |  | > 100 µM | > 100 µM | > 100 µM
18 | CCNc1ncnc2n[nH]nc12 | > 100 µM | > 100 µM | > 100 µM | > 100 µM | > 100 µM | > 100 µM |  | > 100 µM | > 100 µM | > 100 µM | > 100 µM | > 100 µM | > 100 µM
